Measurements from patent US20230277508A1, “USE OF COMPOUND AS CYP2E1 INHIBITOR” (SHANGHAI LING XI BIOTECHNOLOGY DEVELOPMENT CO., LTD., priority 2020, published 2023).

Assays:
CYP2E1 [1] = biological target: T1, CYP2E1 (Rattus norvegicus, UniProt P05182); test: In vivo inhibition of metabolism of DEN by CYP2E1 in rats (toxicokinetics of DEN); set-up: species or system SD rats
T1 construct: from tissue; host or cells: whole animal (SD rats); endogenous enzyme in vivo
Method: Experimental method: An inhibitory effect of the compound SMI0 on CYP2E1 in rats was investigated by a self-controlled crossover experiment design. In a first round of experiments, DEN alone was intraperitoneally injected at 50 mg/kg (30 SD rats in total) in the first week; after a one-week interval, a second round of experiments were conducted as follows: each rat was first intragastrically administered with the compound SMI0 at a low, medium, or high dose (6 mg/kg, 30 mg/kg, or 150 mg/kg), and 5 min later, each rat was intraperitoneally injected with DEN at 50 mg/kg (10 rats were set for each of low, medium, and high doses); blood was collected at 2 min, 7 min, 15 min, and 30 min and 1 h, 2 h, 4 h, 6 h, 9 h, 12 h, 24 h, 36 h, 48 h, and 60 h; a DEN concentration in plasma was determined at different blood collection time points, and a toxicokinetic parameter of DEN was calculated; and plasma DEN was detected by high performance liquid chromatography (HPLC) as follows: 100 μL of plasma was added to 10 μL of perchloric acid, a resulting mixture was vortexed for 3 min and then centrifuged at 12,000 rpm for 10 min, and 10 μL of a resulting supernatant was collected and injected into an instrument, where the PLC was conducted with methanol:water=50:50 as a mobile phase and a detection wavelength of 240 nm.

CYP2E1 [2] = biological target: T2, CYP2E1 (Mus musculus, UniProt Q05421); test: CYP2E1 activity (liver microsome) in mouse Lewis lung cancer in situ model; format: in vivo; conditions: SMI0 intervention group vs model group, P<0.05
T2 construct: from tissue; host or cells: liver microsomes of treated model mice (calcium precipitation)
Method: Experimental method: A calcium precipitation method was used to prepare a mouse liver microsome, and a Braford method was used to determine a protein concentration in the microsome. An incubation system was prepared with 2×PBS, a CZX solution, and the liver microsome at a final concentration of 0.5 mg/mL, and then pre-incubated at 37° C. for 5 min; NADPH was added to initiate a reaction, and a resulting mixture was incubated at 37° C. for 30 min and then placed on ice to terminate the reaction; and ethyl acetate was added to extract 6-hydroxychlorzoxazone, a resulting mixture was vortexed and centrifuged, and a resulting upper organic phase was collected and blow-dried with nitrogen. A peak area of a CZX metabolite 6-hydroxychlorzoxazone was detected by HPLC under the following conditions: methanol:water=56:44, and detection wavelength: 287 nm. A concentration A C of the metabolite 6-hydroxychlorzoxazone was calculated through substitution into a standard curve; and a reaction rate of conversion of CZX into 6-hydroxychlorzoxazone was calculated according to V(pmol/min/mg)=(ΔC*1000)/(B*T) to evaluate an enzymatic activity of CYP2E1, where B represents a protein concentration of the microsome (mg/mL) and T represents an incubation time (min). A correlation between CYP2E1 activity and lung tumor weight in the Lewis lung cancer in situ model was analyzed.

[3] = tested on: B16-F10 cell lung metastasis; test: Lung metastasis model, tail vein injection of melanoma cell B16-F10; format: in vivo, C57BL/6 mouse; conditions: SMI0 30 mg/kg, 14 days
Method: Experimental method: A female C57BL/6 mouse lung metastasis model was constructed through tail vein injection of a melanoma cell B16-F10, with a cell amount of 8*10^5. Mice were divided into a control group, a model group, and an SMI0 intervention group, and the modeling took 14 days (control group, n=5; model group, n=5; and SMI0 (30 mg/kg), n=4). At the end of the experiment, a body weight of mice in each group was recorded, blood was collected from the orbit, the mice were sacrificed, and lung tissues were collected and weighed. The lung tissues were fixed in a formalin solution for 24 h, and a number of lung nodules of mice in each group was recorded.

Lewis lung cancer cells = test: Direct effect on proliferation of Lewis lung cancer cells (CCK8); format: cell-based; conditions: up to 100 μmol/L, 24 h
Method: Experimental method: Lewis lung cancer cells and A549 lung cancer cells in a logarithmic growth phase each were selected and inoculated into a 96-well plate at a concentration of 1*10^5 cells/mL, then 100 μL of a basic medium including SMI0 at different concentrations (0 μmol/L, 0.16 μmol/L, 0.8 μmol/L, 4 μmol/L, 20 μmol/L, and 100 μmol/L) was added to each well, and 24 h later, 10 μL of a CCK8 reagent was added to each well; and the cells were further cultivated for 2 h, and an absorbance OD value of each well was determined at 450 nm by a microplate reader. 3 replicates were set for each well, and an average was taken. The proliferation activity was calculated based on the OD value.

[4] = tested on: LPS-induced sepsis in mice; test: LPS-induced mouse sepsis model; format: in vivo; conditions: vs model group
Method: Mice: A mouse sepsis model was constructed through single intraperitoneal injection of LPS (15 mg/kg). 30 min before LPS administration, mice in the model group were administered with NS (0.5 mL/kg, i.g.), mice in the positive control group were administered with celecoxib (5 mg/kg, i.g.), and mice in the CYP2E1 inhibition group were administered with the compound SMI0 (90 mg/kg, i.g.). A body temperature of each mouse was measured and recorded at 6 h, 12 h, and 24 h after LPS administration, and the body temperature was measured […] in total throughout the experimental process. The animals were sacrificed at 24 h, blood samples were collected, and renal and cardiac function-associated indexes were determined (control group, n=8 mice; model group, n=8 mice; celecoxib group, n=8 mice; and SMI0 compound group, n=10 mice).

T1 sequence (P05182 whole entry): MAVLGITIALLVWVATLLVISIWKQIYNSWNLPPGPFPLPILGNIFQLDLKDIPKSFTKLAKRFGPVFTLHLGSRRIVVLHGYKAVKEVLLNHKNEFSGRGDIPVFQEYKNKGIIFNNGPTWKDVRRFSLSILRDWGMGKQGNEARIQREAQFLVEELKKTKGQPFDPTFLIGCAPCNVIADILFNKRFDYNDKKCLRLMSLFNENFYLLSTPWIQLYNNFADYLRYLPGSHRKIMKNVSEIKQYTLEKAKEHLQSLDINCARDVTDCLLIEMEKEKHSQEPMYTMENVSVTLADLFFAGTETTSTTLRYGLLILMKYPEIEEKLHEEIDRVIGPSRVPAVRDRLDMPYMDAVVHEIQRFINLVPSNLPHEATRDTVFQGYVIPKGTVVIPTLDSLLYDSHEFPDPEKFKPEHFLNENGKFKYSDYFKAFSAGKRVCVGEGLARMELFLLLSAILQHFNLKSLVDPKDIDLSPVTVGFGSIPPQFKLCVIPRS
T2 sequence (Q05421 whole entry): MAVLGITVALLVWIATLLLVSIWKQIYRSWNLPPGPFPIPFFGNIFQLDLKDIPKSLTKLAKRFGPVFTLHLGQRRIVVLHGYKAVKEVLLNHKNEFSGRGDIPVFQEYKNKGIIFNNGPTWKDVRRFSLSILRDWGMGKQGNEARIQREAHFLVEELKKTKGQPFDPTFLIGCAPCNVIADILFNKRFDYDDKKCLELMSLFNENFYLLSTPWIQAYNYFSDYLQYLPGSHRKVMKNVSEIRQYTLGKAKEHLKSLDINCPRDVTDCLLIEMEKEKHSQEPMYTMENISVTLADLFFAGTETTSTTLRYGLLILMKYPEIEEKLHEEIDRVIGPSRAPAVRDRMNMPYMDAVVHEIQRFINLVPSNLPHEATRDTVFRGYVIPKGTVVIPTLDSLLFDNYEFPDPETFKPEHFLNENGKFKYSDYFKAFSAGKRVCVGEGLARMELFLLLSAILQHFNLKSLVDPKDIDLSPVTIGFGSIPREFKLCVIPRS

## CC(=O)c1scnc1C [SMI0]
CYP2E1 [1]; SMI0 high dose 150 mg/kg ig
  inhibition rate (CL of DEN): 86.77%
CYP2E1 [1]; SMI0 low dose 6 mg/kg ig
  inhibition rate (CL of DEN): 62.43%
CYP2E1 [1]; SMI0 medium dose 30 mg/kg ig
  inhibition rate (CL of DEN): 80.42%
CYP2E1 [2]
  CYP2E1 activity: significantly reduced
[3]; vs model group
  lung weight: significantly reduced
  number of nodules: significantly reduced
[3]; as high as
  tumor proliferation inhibition rate: 58.3%
Lewis lung cancer cells
  effect on the proliferation of Lewis lung cancer cells: no significant inhibitory effect
[4]; SMI0 90 mg/kg ig 30 min before LPS 15 mg/kg ip, 6 h, 12 h, 24 h
  decrease in body temperature in the LPS-induced sepsis mouse model: avoided
[4]; serum at 24 h, SMI0 90 mg/kg ig
  levels of renal and cardiac function-associated indexes (urea nitrogen, creatinine, CK, LDH): significantly reduced
